Results taken from patent US20160229839A1, “Factor XIa Inhibitors” (Merck Sharp & Dohme Corp., priority 2013, published 2016).

Target: T1, purified human Factor XIa (Homo sapiens, UniProt P03951)
T1 construct: purified human Factor XIa; purchased Sekisui Diagnostics
Assay: Factor XIa Assay (fluorogenic substrate Z-Gly-Pro-Arg-AFC)
Assay type: biochemical
Settings: purified human Factor XIa 40 pM; Z-Gly-Pro-Arg-AFC 100 μM; 50 mM HEPES pH 7.4; read-out: hFXIa Ki (nM), Factor XIa inhibition
Protocol: The effectiveness of compound of the present invention as inhibitors of Coagulation Factor XIa can be determined using a relevant purified serine protease, and an appropriate synthetic substrate. The rate of hydrolysis of the chromogenic or fluorogenic substrate by the relevant serine protease was measured both in the absence and presence of compounds of the present invention. Assays were conducted at room temperature or at 37° C. […] A decrease in the rate of fluorescence change in the presence of inhibitor is indicative of enzyme inhibition. Such methods are known to one skilled in the art. The results of this assay are expressed as the inhibitory constant, Ki.
Factor XIa determinations were made in 50 mM HEPES buffer at pH 7.4 containing 150 mM NaCl, 5 mM CaCl2, and 0.1% PEG 8000 (polyethylene glycol; J T Baker or Fisher Scientific). Determinations were made using purified human Factor XIa at a final concentration of 40 pM (Sekisui Diagnostics) and he synthetic substrate, Z-Gly-Pro-Arg-AFC, TFA salt (Sigma #C0980) at a concentration of 100 μM.
Activity assays were performed by diluting a stock solution of substrate at least tenfold to a final concentration ≦0.1 Km into a solution containing enzyme or enzyme equilibrated with inhibitor. Times required to achieve equilibration between enzyme and inhibitor were determined in control experiments. Initial velocities of product formation in the absence (Vo) or presence of inhibitor (Vi) were measured. Assuming competitive inhibition, and that unity is negligible compared Km/[S], [I]/e, and [I]/e (where [S], [I], and e respectively represent the total concentrations, of substrate, inhibitor and enzyme), the equilibrium constant (Ki) for dissociation of the inhibitor from the enzyme can be obtained from the dependence of Vo/Vi on [I] shown in the following equation.

T1 sequence (P03951 388-625 limits assumed): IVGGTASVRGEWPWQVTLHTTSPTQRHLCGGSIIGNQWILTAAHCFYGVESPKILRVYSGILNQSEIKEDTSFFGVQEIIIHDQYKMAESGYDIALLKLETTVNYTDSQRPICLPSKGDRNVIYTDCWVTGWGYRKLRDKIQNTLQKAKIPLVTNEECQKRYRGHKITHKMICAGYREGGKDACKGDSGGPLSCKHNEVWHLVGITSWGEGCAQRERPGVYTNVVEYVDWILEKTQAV
T1 sequence (P03951 19-387 partner limits assumed): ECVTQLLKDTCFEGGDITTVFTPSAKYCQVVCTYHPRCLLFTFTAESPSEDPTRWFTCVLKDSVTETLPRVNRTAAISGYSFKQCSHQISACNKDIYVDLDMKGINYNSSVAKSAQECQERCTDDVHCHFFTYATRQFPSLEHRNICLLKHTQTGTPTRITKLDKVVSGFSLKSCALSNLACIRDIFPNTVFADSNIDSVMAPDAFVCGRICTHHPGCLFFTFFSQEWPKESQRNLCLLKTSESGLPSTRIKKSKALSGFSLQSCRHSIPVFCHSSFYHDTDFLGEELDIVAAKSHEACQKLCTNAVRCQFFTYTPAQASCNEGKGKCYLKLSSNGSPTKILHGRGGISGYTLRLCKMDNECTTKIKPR

Row | Ki | SMILES
1 | > 10000 nM | N#Cc1cccc(-c2c[nH]c(C3C(c4ccccc4)CCCN3C(=O)/C=C/c3cc(Cl)ccc3-n3cnnn3)n2)c1 (centres unmarked) [Example 1-27, (E)-3-(2-(1-(3-(5-chloro-2-(1H-tetrazol-1-yl)phenyl)acryloyl)-3-phenylpiperidin-2-yl)-1H-imidazol-4-yl)benzonitrile]
2 | > 10000 nM | COc1cccc(-c2c[nH]c(C3C(c4ccccc4)CCCN3C(=O)/C=C/c3cc(Cl)ccc3-n3cnnn3)n2)c1 (centres unmarked) [Example 1-28, (E)-3-(5-chloro-2-(1H-tetrazol-1-yl)phenyl)-1-(2-(4-(3-methoxyphenyl)-1H-imidazol-2-yl)-3-phenylpiperidin-1-yl)prop-2-en-1-one]
3 | > 10000 nM | CS(=O)(=O)c1ccc(-c2c[nH]c(C3C(c4ccccc4)CCCN3C(=O)/C=C/c3cc(Cl)ccc3-n3cnnn3)n2)cc1 (centres unmarked) [Example 1-29, (E)-3-(5-chloro-2-(1H-tetrazol-1-yl)phenyl)-1-(2-(4-(4-(methylsulfonyl)phenyl)-1H-imidazol-2-yl)-3-phenylpiperidin-1-yl)prop-2-en-1-one]
4 | > 10000 nM | O=C(/C=C/c1cc(Cl)ccc1-n1cnnn1)N1CCCC(c2ccccc2)C1c1nc(-c2ccc(C(F)(F)F)cc2)c[nH]1 (centres unmarked) [Example 1-30, (E)-3-(5-chloro-2-(1H-tetrazol-1-yl)phenyl)-1-(3-phenyl-2-(4-(4-(trifluoromethyl)phenyl)-1H-imidazol-2-yl)piperidin-1-yl)prop-2-en-1-one]
5 | > 10000 nM | O=C(/C=C/c1cc(Cl)ccc1-n1cnnn1)N1CCCC(c2ccccc2)C1c1nc(-c2cccc(C(F)(F)F)c2)c[nH]1 (centres unmarked) [Example 1-31, (E)-3-(5-chloro-2-(1H-tetrazol-1-yl)phenyl)-1-(3-phenyl-2-(4-(3-(tifluoromethyl)phenyl)-1H-imidazol-2-yl)piperidin-1-yl)prop-2-en-1-one]
6 | 218 nM | O=C(O)c1ccc(NC(=O)C2C(c3ccc(C(F)(F)F)cc3)CCCN2C(=O)/C=C/c2cc(Cl)ccc2-n2cnnn2)cc1 (centres unmarked) [Example 1-32, (E)-4-(1-(3-(5-chloro-2-(1H-tetrazol-1-yl)phenyl)acryloyl)-3-(4-(trifluoromethyl)phenyl)piperidine-2-carboxamido)benzoic acid]
7 | 46.7 nM | Nc1ccc(C2CCCN(C(=O)/C=C/c3cc(Cl)ccc3-n3cnnn3)C2C(=O)Nc2ccc(C(=O)O)cc2)cc1 (centres unmarked) [Example 1-33, (E)-4-(3-(4-aminophenyl)-1-(3-(5-chloro-2-(1H-tetrazol-1-yl)phenyl)acryloyl)piperidine-2-carboxamido)benzoic]
8 | 24.9 nM | O=C(/C=C/c1cc(Cl)ccc1-n1cnnn1)Nc1ccc(C2CCCN(C(=O)/C=C/c3cc(Cl)ccc3-n3cnnn3)C2C(=O)Nc2ccc(C(=O)O)cc2)cc1 (centres unmarked) [Example 1-34, 4-(3-(4-((E)-3-(5-chloro-2-(1H-tetrazol-1-yl)phenyl)acrylamido)phenyl)-1-((E)-3-(5-chloro-2-(1H-tetrazol-1-yl)phenyl)acryloyl)piperidine-2-carboxamido)benzoic acid]
9 | 122 nM | O=C(O)c1ccc(NC(=O)C2C(c3ccc(OC(F)(F)F)cc3)CCCN2C(=O)/C=C/c2cc(Cl)ccc2-n2cnnn2)cc1 (centres unmarked) [Example 1-35, (E)-4-(1-(3-(5-chloro-2-(1H-tetrazol-1-yl)phenyl)acryloyl)-3-(4-(tifluoromethoxy)phenyl)piperidine-2-carboxamido)benzoic acid]
10 | 36.2 nM | NC(=O)c1ccc(C2CCCN(C(=O)/C=C/c3cc(Cl)ccc3-n3cnnn3)C2C(=O)Nc2ccc(C(=O)O)cc2)cc1 (centres unmarked) [Example 1-36, (E)-4-(3-(4-carbamoylphenyl)-1-(3-(5-chloro-2-(1H-tetrazol-1-yl)phenyl)acryloyl)piperidine-2-carboxamido)benzoic acid]
11 | 51.5 nM | Cc1cc(C2CCCN(C(=O)/C=C/c3cc(Cl)ccc3-n3cnnn3)C2C(=O)Nc2ccc(C(=O)O)cc2)ccc1F (centres unmarked) [Example 1-37, (E)-4-(1-(3-(5-chloro-2-(1H-tetrazol-1-yl)phenyl)acryloyl)-3-(4-fluoro-3-methylphenyl)piperidine-2-carboxamido)benzoic acid]
